Source: the supplement of paper PMC10307832

How the values were obtained:
Assay in all cases: relative viability (nuclei count vs DMSO), 5 days (fraction); higher = more cells survive
Shikonin + Navitoclax = compound: CC(C)=CC[C@@H](O)C1=CC(=O)c2c(O)ccc(O)c2C1=O [Shikonin] + CC1(C)CCC(c2ccc(Cl)cc2)=C(CN2CCN(c3ccc(C(=O)NS(=O)(=O)c4ccc(N[C@H](CCN5CCOCC5)CSc5ccccc5)c(S(=O)(=O)C(F)(F)F)c4)cc3)CC2)C1 [Navitoclax] (partner 0.5 µM)
How it was run: (§1)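 Nuclei were stained with Hoechst during a one-step fixation (final 0.05% Triton X-100, 1% formaldehyde, 1 ug/ml Hoechst) carried out 5 days after dosing, then counted on 4× images. The cells, lung cancer lines in 1536-well plates, had been dosed by pin tool the day after seeding with one drug alone or a fixed anchor-drug dose plus five library-drug doses (not always all listed) in √10 steps. Relative viability is the nuclei count in treated wells divided by that in vehicle wells, and each value is the median of duplicate plates.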

[1] = compound: CC(C)N(CCCNC(=O)Nc1ccc(C(C)(C)C)cc1)C[C@H]1O[C@@H](n2ccc3c(N)ncnc32)[C@H](O)[C@@H]1O + C[C@]1(O)C[C@@H](c2nc(-c3ccc4ccc(-c5ccccc5)nc4c3)c3c(N)nccn32)C1 [Linsitinib] (partner 1 µM)
How it was run: as §1

[2] = compound: CC(C)N(CCCNC(=O)Nc1ccc(C(C)(C)C)cc1)C[C@H]1O[C@@H](n2ccc3c(N)ncnc32)[C@H](O)[C@@H]1O + C[C@@H](Oc1cc(-c2cnn(C3CCNCC3)c2)cnc1N)c1c(Cl)ccc(F)c1Cl [Crizotinib] (partner 1 µM)
How it was run: as §1

Shikonin + Palbociclib = compound: CC(C)=CC[C@@H](O)C1=CC(=O)c2c(O)ccc(O)c2C1=O [Shikonin] + CC(=O)c1c(C)c2cnc(Nc3ccc(N4CCNCC4)cn3)nc2n(C2CCCC2)c1=O [Palbociclib] (partner 0.5 µM)
How it was run: as §1

| Cell Line | relative viability (Shikonin + Navitoclax; first compound 0.01 µM) | relative viability (Shikonin + Navitoclax; first compound 0.1 µM) | relative viability (Shikonin + Navitoclax; first compound 0.3162 µM) | relative viability (Shikonin + Navitoclax; first compound 1 µM) | relative viability ([1]; first compound 0.08 µM) | relative viability ([1]; first compound 0.253 µM) | relative viability ([1]; first compound 0.8 µM) | relative viability ([1]; first compound 2.53 µM) | relative viability ([1]; first compound 8 µM) | relative viability ([2]; first compound 0.08 µM) | relative viability ([2]; first compound 0.253 µM) | relative viability ([2]; first compound 0.8 µM) | relative viability ([2]; first compound 2.53 µM) | relative viability ([2]; first compound 8 µM) | relative viability (Shikonin + Palbociclib; first compound 0.01 µM) | relative viability (Shikonin + Palbociclib; first compound 0.1 µM) | relative viability (Shikonin + Palbociclib; first compound 0.3162 µM) | relative viability (Shikonin + Palbociclib; first compound 1 µM) |
| --- | --- | --- | --- | --- | --- | --- | --- | --- | --- | --- | --- | --- | --- | --- | --- | --- | --- | --- |
| EBC-1 | 0.366 | 0.392 | 0.352 | 0.254 | 0.656 | 0.74 | 0.598 | 0.885 | 0.727 | 0.207 | 0.199 | 0.18 | 0.178 | 0.171 | – | – | – | – |
| EKVX | 0.828 | 0.897 | 1.21 | 0.903 | 0.941 | 0.972 | 0.914 | 0.943 | 0.927 | 0.989 | 0.83 | 0.822 | 0.917 | 0.804 | 0.404 | 0.389 | 0.413 | 0.366 |
| EMC-BAC-2 | 1.13 | 1.1 | 1.28 | 1.22 | 0.764 | 0.835 | 0.794 | 0.806 | 0.804 | 0.729 | 0.727 | 0.655 | 0.643 | 0.707 | 0.512 | 0.573 | 0.538 | 0.513 |
| EPLC-272H | 1.17 | 1.07 | 1.27 | 1.14 | 1.12 | 1.09 | 1.05 | 1.03 | 1.05 | 0.944 | 0.986 | 0.869 | 0.895 | 0.822 | 0.373 | 0.321 | 0.336 | 0.282 |
| H3255 | 0.454 | 0.695 | 0.519 | 0.584 | 0.804 | 0.958 | 0.947 | 0.994 | 0.84 | 0.763 | 0.76 | 0.959 | 0.717 | 0.735 | 0.316 | 0.333 | 0.337 | 0.303 |
| HARA | 1.14 | 1.13 | 1.15 | 1.13 | 0.885 | 0.845 | 0.868 | 0.794 | 0.906 | 0.991 | 0.968 | 0.927 | 1.1 | 0.988 | 0.262 | 0.285 | 0.248 | 0.248 |
| HCC-15 | 0.742 | 0.655 | 0.784 | 0.747 | 0.84 | 0.908 | 0.909 | 0.9 | 0.859 | 0.85 | 0.804 | 0.819 | 0.832 | 0.776 | 0.781 | 0.676 | 0.817 | 0.724 |
| HCC-44 | 1.04 | 0.909 | 1.1 | 1.07 | 0.647 | 0.68 | 0.748 | 0.666 | 0.729 | 0.788 | 0.864 | 0.832 | 0.859 | 0.744 | 0.979 | 0.991 | 0.984 | 1 |
| HCC-78 | 0.718 | 0.964 | 0.942 | 0.841 | 0.576 | 0.437 | 0.423 | 0.51 | 0.456 | 0.312 | 0.304 | 0.329 | 0.374 | 0.34 | 0.459 | 0.481 | 0.461 | 0.413 |
